{"source": "patent US20120028917A1", "about": "“Use Of N-(4-((3-(2-Amino-4-Pyrimidinyl)-2-Pyridinyl)Oxy)Phenyl)-4-(4-Methyl-2-Thienyl)-1-Phthalazinamine In The Treatment Of Antimitotic Agent Resistant Cancer” (Amgen Inc., priority 2009, published 2012)", "key": {"[1]": {"tested_on": "MES-SA Dx5", "experiment": "p-Histone H3 assay (ArrayScan VTi)", "format": "cell-based", "conditions": "Homo sapiens, 24 h; MES-SA Dx5, Uterine, Doxorubicin-selected, P-gp overexpressing", "method": "(§1) MES-SA Dx5 and MES-SA cells were plated at a density of 10,000 cells/well onto 96-well plate in complete media and cultured for 24 hours. […] Cells were washed and fixed by adding 100 μL of 2× formaldehyde fixation buffer for 10 minutes and room temperature. […] Cells were immunostained with p-histone H3 antibody (5 μg/mL) and incubated at room temperature for 2 hours. Cells were washed in 100 μL of wash buffer. Next, cells were incubated with a goat anti-rabbit alexa-488 conjugated antibody (1.5 μg/mL) in wash buffer supplemented with Hoechest DNA dye (1 μg/mL) and incubated at room temperature in the dark for 30 minutes. Cells were washed twice with 100 μL of wash buffer. The 96-well plates were analyzed on an ArrayScan VTi (Cellomics) using a bioapplication algorithm (TargetActivation.V2). […] Cells were then fixed and stained with p-histone H3 antibody and counterstained with a DNA dye (Hoechest). Imaging-based analysis (ArrayScan VTi) was performed to measure the percentage of p-histone H3 positive cells. The dose-response curves represent either AMG 900 or taxol concentrations plotted against p-Histone H3 positive cells as a percentage of DMSO-treated control (POC). The EC50 values were calculated by 4-parameter fit model."}, "[2]": {"tested_on": "MES-SA", "experiment": "p-Histone H3 assay (ArrayScan VTi)", "format": "cell-based", "conditions": "Homo sapiens, 24 h, Uterine, Parent line", "method": "as §1"}, "[3]": {"tested_on": "MDA-MB-231-Taxol-r", "experiment": "Cell cycle DNA content assay (flow cytometry)", "format": "cell-based", "conditions": "Homo sapiens, 24 h, Breast, Paclitaxel-selected, read-out: EC50 @ 24 hours, Sub G1", "method": "(§2) MDA-MB-231(F11)-luc parent and taxol-resistant cells were seeded at a density of 250,000 cells/well in a 12-well plate in 1 mL of in the appropriate media, in duplicates. The next day cells were treated with AMG 900 or taxol over a 10-point concentration range with a final DMSO concentration of 0.1% in taxol-free media. After 24 hours, cells were harvested with 1× trypsin-EDTA and transferred to PCR tubes. Cells were centrifuged at 2000 rpm for 4 minutes and the supernatant was aspirated. Cells were fixed in 200 μL of ice cold 90% methanol and stored at −20° C. for at least 24 hours. Fixed cells were centrifuged at 2000 rpm for 4 minutes to remove 90% methanol. Cells were washed with wash buffer and stained with 200 μL of propidium iodide (PI) for 30 minutes at 4° C. in the dark. An additional 400 μL of PI was added before data acquisition. Data was acquired and analyzed by flow cytometry (LSRII). A threshold gate was applied according to +4N (same as ≧4N) DNA content based on DMSO control and low/high drug-treated groups. The data was represented as percentage of control for +4N DNA content positive populations. The +4N DNA content cellular EC50 values were assigned using 4-parameter equation. […] Flow cytometric-based cell cycle analysis was performed to measure the percentage of ≧4N DNA content or SubG1 DNA content positive cells. The dose-response curves for AMG 900 represent the drug concentration plotted against the percentage of ≧4N DNA content positive cells. The dose-response curves for taxol represent the drug concentration plotted against the percentage of SubG1 DNA content positive cells. The EC50 values were calculated by 4-parameter fit model."}, "[4]": {"tested_on": "MDA-MB-231", "experiment": "Cell cycle DNA content assay (flow cytometry)", "format": "cell-based", "conditions": "Homo sapiens, 24 h; MDA-MB-231, Breast, Parent line; read-out: EC50 @ 24 hours, Sub G1", "method": "as §2"}, "[5]": {"tested_on": "NCI-H460-Taxol-r", "experiment": "Cell cycle DNA content assay (flow cytometry)", "format": "cell-based", "conditions": "Homo sapiens, 24 h, Lung, Paclitaxel-selected, read-out: EC50 @ 24 hours, Sub G1", "method": "(§3) NCI-H460 parental and NCI-H460 taxol-resistant cells were seeded at a density of 500,000 cells/well in a 6-well plate in 2 mL of appropriate complete media. The next day cells were treated with AMG 900 or taxol over a 6-point concentration range with a final DMSO concentration of 0.05% in media. After 24 hours, cells were pulsed with BrdU (1:100 dilution) and harvested. Cells were centrifuged at 1600 rpm for 4 minutes and the supernatant was aspirated. Cells were washed in 1× PBS and fixed in 900 μL of ice cold 90% methanol and stored at −20° C. Fixed cells were centrifuged at 2000 rpm for 4 minutes to remove 90% methanol. Cells were washed with 200 μL of wash buffer and stained with 200 μL of propidium iodide (PI) overnight at 4° C. in the dark. Data was acquired and analyzed by flow cytomety (LSRII). A threshold gate was applied according to +4N (same as ≧4N) DNA content and SubG1 positive populations based on DMSO-treated control and low/high drug-treated groups. The data was represented as a percentage of +4N DNA and SubG1 positive subpopulations. The +4N (same as ≧4N) DNA content or SubG1 cellular EC50 values were calculated using a 4-parameter equation. Lung tumor cell lines were treated with control (DMSO), AMG 900 or taxol over a 6-point dose range for 24 hours. Flow cytometric-based cell cycle analysis was performed to measure the percentage of ≧4N DNA content or SubG1 DNA content positive cells. The dose-response curves for AMG 900 represent the drug concentration plotted against the percentage of ≧4N DNA content positive cells. The dose-response curves for taxol represent the drug concentration plotted against the percentage of SubG1 DNA content positive cells. The EC50 values were calculated by 4-parameter fit model."}, "[6]": {"tested_on": "NCI-H460", "experiment": "Cell cycle DNA content assay (flow cytometry)", "format": "cell-based", "conditions": "Homo sapiens, 24 h; NCI-H460, Lung, Parent line; read-out: EC50 @ 24 hours, Sub G1", "method": "as §3"}, "[7]": {"tested_on": "NCI-H460-taxol resistant tumor xenografts", "experiment": "Growth of established NCI-H460-taxol resistant xenografts (Example 4)", "format": "in vivo, athymic nude mice", "conditions": "12.5mpk IP QD 5 days/week × 2 wks", "method": "To investigate whether AMG 900-induced suppression of aurora kinase activity inhibits cell proliferation, the antitumor efficacy of AMG 900 was evaluated in vivo against NCI-H460-taxol resistant tumor xenografts in athymic nude mice. Mice were dosed PO with AMG 900 (BID) either intermittently or continuously. Mice were dosed IP with paclitaxel (taxol) 5 days/week. An internal Amgen compound was used as a positive control in this study (data not shown). Tumors were measured twice per week. Treatment began on day 12 when the tumors were established. All groups were provided nutritional supplements on a daily basis throughout the study to maintain body weight. AMG 900 (free base) was formulated into suspension to concentrations of 1.5 and 0.3 mg/mL. […] The duration of the dosing phase for AMG 900 was three weeks, and two weeks for the taxol group. The tumors were measured with a digital caliper and the mice were weighed twice per week. Tumor volumes were calculated as follows: […] Tumor inhibition was calculated as follows: […] FIG. 5 illustrates the effects of AMG 900 and Taxol treatment on the growth of established H460-taxol resistant tumors. […] Tumors were measured twice per week. Treatment began 12 days after tumor implantation (arrow) when tumors were approximately 170 mm^3. Mice were dosed PO or IP once or twice daily for 3 weeks. Data represent mean ±SE for each group. *P values (not shown) correspond to statistical difference between groups treated with vehicle and AMG 900 or Taxol analyzed with repeated measure Sheffe's ANOVA over time using […]. The scheduled days listed in the legend represent days/ week. All groups were provided nutritional supplements throughout the study."}, "[8]": {"tested_on": "HCT116 AZD1152-resistant", "experiment": "Colony formation assay (FIG. 6-B)", "format": "cell-based, human", "conditions": "both HCT116 cell lines (parental and AZD1152-resistant) compared", "method": "Tumor cell lines were obtained from the American Type Culture Collection (ATCC) unless otherwise specified. The MDA-MB-231-PTX and NCI-H460-PTX cell lines were established by growing the cells in the presence of increasing concentrations of paclitaxel over a period of 6 months. The HCT116 AZD1152-resistant cell line was established by growing the cells in the presence of AZD1152 at 80 nmol/L. Tumor cells were treated with AMG 900, paclitaxel or AZD1152 (0.5, 5, 50 nmol/L) for 48 hours, washed twice with complete media, and cells were re-plated at a density of 5000 cells per well in drug-free complete media. Cells were grown until the DMSO control wells were confluent. Cells were stained with crystal violet dye (Sigma), washed with distilled water, and imaged using a digital scanner (Hewlett-Packard). Colony formation assay was performed with HCT116 cell lines (parental and AZD1152-resistant). Cells were treated with DMSO, AMG 900, AZD1152, or paclitaxel at the indicated concentrations for 48 hours and re-plated in complete media lacking the inhibitor. After the DMSO-treated cells reached confluence, the cells were stained with crystal violet and imaged (duplicate wells)."}}, "note": "“And” between values parts separate entries of the source, which are not always exact repeats. Equal entries are not always repeated.", "data": [{"smiles": "CC(=O)O[C@H]1C(=O)[C@@]2(C)[C@H]([C@H](OC(=O)c3ccccc3)[C@]3(O)C[C@H](OC(=O)[C@H](O)[C@@H](NC(=O)c4ccccc4)c4ccccc4)C(C)=C1C3(C)C)[C@]1(OC(C)=O)CO[C@@H]1C[C@@H]2O", "note": "[Paclitaxel, reference compound]", "values": [{"measurement": "EC50", "setting": "[1]", "value": "> 1250", "unit": "nM"}, {"measurement": "EC50", "setting": "[2]", "value": 10, "unit": "nM"}, {"measurement": "EC50", "setting": "[3]", "value": 95, "unit": "nM"}, {"measurement": "EC50", "setting": "[4]", "value": 2, "unit": "nM"}, {"measurement": "EC50", "setting": "[5]", "value": "> 100", "unit": "nM"}, {"measurement": "EC50", "setting": "[6]", "value": 10, "unit": "nM"}, {"measurement": "Tumor volume, Mean", "setting": "[7]", "value": 1383, "unit": "mm^3"}, {"measurement": "Tumor volume, Median", "setting": "[7]", "value": 1072.0, "unit": "mm^3"}, {"measurement": "% Inhibition (tumor growth)", "setting": "[7]; listed as Taxol", "value": "20% and 19.7%"}, {"measurement": "sensitivity in colony formation", "setting": "[8]", "value": "equally sensitive"}]}]}
